Results taken from US9670227B2, “Thienopyrimidine derivatives, a process for their preparation and pharmaceutical compositions containing them” (LES LABORATOIRES SERVIER, priority 2013, dated 2017).

Experiments:
Mcl-1 protein = Mcl-1 protein (UniProtKB primary accession number: Q07820) (Homo sapiens, UniProt Q07820); test: Inhibition of Mcl-1 by fluorescence polarisation, Method 1; type: binding; settings: fluorescence polarisation test; Method 2 values are underlined in the patent (underlining not visible here); read-out: IC50 (M) Mcl-1 FP
Outline: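 Binding was measured as fluorescence polarisation of a fluorescein-labelled ligand (1 nM) displaced from Mcl-1 (5 nM), both final. Compounds ran as 11-point series with final DMSO at 5%.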

[1] = test system: H929 multiple myeloma tumour line; test: In vitro cytotoxicity, Microculture Tetrazolium Assay; type: cell-based; settings: Homo sapiens, NCI-H929, 48 h, H929 cells, 48 hours exposure, MTT; read-out: IC50 (μM) MTT H929
Description: The cytotoxicity studies were carried out on the H929 multiple myeloma tumour line.
The cells are distributed onto microplates and exposed to the test compounds for 48 hours.

Sequence of Mcl-1 protein (Q07820 whole entry): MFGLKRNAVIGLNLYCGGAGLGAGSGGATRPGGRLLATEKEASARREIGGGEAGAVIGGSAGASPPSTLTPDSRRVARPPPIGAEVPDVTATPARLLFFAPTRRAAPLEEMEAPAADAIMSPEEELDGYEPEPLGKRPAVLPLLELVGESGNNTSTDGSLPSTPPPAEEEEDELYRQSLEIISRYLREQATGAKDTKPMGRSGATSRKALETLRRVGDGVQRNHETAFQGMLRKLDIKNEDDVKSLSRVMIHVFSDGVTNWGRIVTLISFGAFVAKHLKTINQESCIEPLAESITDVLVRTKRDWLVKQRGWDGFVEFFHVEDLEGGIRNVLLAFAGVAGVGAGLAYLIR

Row | Compound | IC50 (Mcl-1 protein) [M] | IC50 [1] [µM]
1 | COc1ccccc1CC(Oc1ncnc2sc(-c3ccc(F)o3)c(-c3ccc(OCCN(C)C)c(Cl)c3C)c12)C(=O)O [Example 199, (2R)-2-{[(5Sa)-5-{3-chloro-4-[2-(dimethylamino)ethoxy]-2-methylphenyl}-6-(5-fluorofuran-2-yl)thieno[2,3-d]pyrimidin-4-yl]oxy}-3-(2-methoxyphenyl)propanoic acid] | 6.6e-09 | 0.28
2 | Cc1c(-c2c(-c3ccc(F)o3)sc3ncnc(OC(Cc4ccccc4OCC(F)(F)F)C(=O)O)c23)ccc(OCCN(C)C)c1Cl [Example 200, (2R)-2-{[(5Sa)-5-{3-chloro-4-[2-(dimethylamino)ethoxy]-2-methylphenyl}-6-(5-fluorofuran-2-yl)thieno[2,3-d]pyrimidin-4-yl]oxy}-3-[2-(2,2,2-trifluoroethoxy)phenyl]propanoic acid] | 6.1e-09 | 0.106
3 | Cc1c(-c2c(-c3ccc(F)o3)sc3ncnc(OC(Cc4ccccc4OCc4ccnc(C(F)(F)F)n4)C(=O)O)c23)ccc(OCCN(C)C)c1Cl [Example 201, (2R)-2-{[(5Sa)-5-{3-chloro-4-[2-(dimethylamino)ethoxy]-2-methylphenyl}-6-(5-fluorofuran-2-yl)thieno[2,3-d]pyrimidin-4-yl]oxy}-3-(2-{[2-(trifluoromethyl)pyrimidin-4-yl]methoxy}phenyl)propanoic acid] | 5.8e-09 | 0.027
4 | Cc1c(-c2c(-c3ccc(F)o3)sc3ncnc(OC(Cc4ccccc4OCc4ccnc(OCC(F)(F)F)n4)C(=O)O)c23)ccc(OCCN(C)C)c1Cl [Example 203, (2R)-2-{[(5Sa)-5-{3-chloro-4-[2-(dimethylamino)ethoxy]-2-methylphenyl}-6-(5-fluorofuran-2-yl)thieno[2,3-d]pyrimidin-4-yl]oxy}-3-(2-{[2-(2,2,2-trifluoroethoxy)pyrimidin-4-yl]methoxy}phenyl)propanoic acid] | 9.1e-09 | 0.005
5 | CCn1nccc1COc1ccccc1CC(Oc1ncnc2sc(-c3ccc(F)o3)c(-c3ccc(OCCN(C)C)c(Cl)c3C)c12)C(=O)O [Example 204, (2R)-2-{[(5Sa)-5-{3-chloro-4-[2-(dimethylamino)ethoxy]-2-methylphenyl}-6-(5-fluorofuran-2-yl)thieno[2,3-d]pyrimidin-4-yl]oxy}-3-{2-[(1-ethyl-1H-pyrazol-5-yl)methoxy]phenyl}propanoic acid] | 4.9e-09 | 0.034
6 | Cc1c(-c2c(-c3ccc(F)o3)sc3ncnc(OC(Cc4ccccc4OCc4ccnn4CC(F)(F)F)C(=O)O)c23)ccc(OCCN(C)C)c1Cl [Example 205, (2R)-2-{[(5Sa)-5-{3-chloro-4-[2-(dimethylamino)ethoxy]-2-methylphenyl}-6-(5-fluorofuran-2-yl)thieno[2,3-d]pyrimidin-4-yl]oxy}-3-(2-{[1-(2,2,2-trifluoroethyl)-1H-pyrazol-5-yl]methoxy}phenyl)propanoic acid] | 3.8e-09 | 0.028
7 | Cc1c(-c2c(-c3ccc(F)o3)sc3ncnc(OC(Cc4ccccc4OCc4cnccn4)C(=O)O)c23)ccc(OCCN(C)C)c1Cl [Example 206, (2R)-2-{[(5Sa)-5-{3-chloro-4-[2-(dimethylamino)ethoxy]-2-methylphenyl}-6-(5-fluorofuran-2-yl)thieno[2,3-d]pyrimidin-4-yl]oxy}-3-[2-(pyrazin-2-ylmethoxy)phenyl]propanoic acid] | 8e-09 | 0.135
8 | Cc1c(-c2c(-c3ccco3)sc3ncnc(OC(Cc4ccccc4O)C(=O)O)c23)ccc(OCCN2CCN(C)CC2)c1Cl [Example 207, (2R)-2-{[-[(5Sa)-5-{3-chloro-2-methyl-4-[2-(4-methylpiperazin-1-yl)ethoxy]phenyl}-6-(furan-2-yl)thieno[2,3-d]pyrimidin-4-yl]oxy}-3-(2-hydroxyphenyl)propanoic acid] | 6.5e-09 | 0.186
9 | Cc1c(-c2c(-c3ccco3)sc3ncnc(OC(Cc4ccccc4OC(C)c4ccncc4)C(=O)O)c23)ccc(OCCN2CCN(C)CC2)c1Cl [Example 208, (2R)-2-{[(5Sa)-5-{3-chloro-2-methyl-4-[2-(4-methylpiperazin-1-yl)ethoxy]phenyl}-6-(furan-2-yl)thieno[2,3-d]pyrimidin-4-yl]oxy}-3-{2-[(1R)-1-(pyridin-4-yl)ethoxy]phenyl}propanoic acid] | 5.5e-09 | 0.571
10 | Cc1c(-c2c(-c3ccco3)sc3ncnc(OC(Cc4ccccc4OC(C)C)C(=O)O)c23)ccc(OCCN2CCN(C)CC2)c1Cl [Example 210, (2R)-2-{[(5Sa)-5-{3-chloro-2-methyl-4-[2-(4-methylpiperazin-1-yl)ethoxy]phenyl}-6-(furan-2-yl)thieno[2,3-d]pyrimidin-4-yl]oxy}-3-[2-(propan-2-yloxy)phenyl]propanoic acid] | 1e-08 | 0.406
11 | Cc1c(-c2c(-c3ccco3)sc3ncnc(OC(Cc4ccccc4OC4CCCC4)C(=O)O)c23)ccc(OCCN2CCN(C)CC2)c1Cl [Example 212, (2R)-2-{[(5Sa)-5-{3-chloro-2-methyl-4-[2-(4-methylpiperazin-1-yl)ethoxy]phenyl}-6-(furan-2-yl)thieno[2,3-d]pyrimidin-4-yl]oxy}-3-[2-(cyclopentyloxy)phenyl]propanoic acid] | 1.6e-08 | 0.616
12 | Cc1c(-c2c(-c3ccco3)sc3ncnc(OC(Cc4ccccc4OC4CCN(C)C4)C(=O)O)c23)ccc(OCCN2CCN(C)CC2)c1Cl [Example 214, (2R)-2-{[(5Sa)-5-{3-chloro-2-methyl-4-[2-(4-methylpiperazin-1-yl)ethoxy]phenyl}-6-(furan-2-yl)thieno[2,3-d]pyrimidin-4-yl]oxy}-3-{2-[(1-methylpyrrolidin-3-yl)oxy]phenyl}propanoic acid] | 9.3e-09 | 0.897
13 | CCOc1ccccc1CC(Oc1ncnc2sc(-c3ccco3)c(-c3ccc(OCCN4CCN(C)CC4)c(Cl)c3C)c12)C(=O)O [Example 215, (2R)-2-{[(5Sa)-5-{3-chloro-2-methyl-4-[2-(4-methylpiperazin-1-yl)ethoxy]phenyl}-6-(furan-2-yl)thieno[2,3-d]pyrimidin-4-yl]oxy}-3-(2-ethoxyphenyl)propanoic acid] | 8e-09 | 0.203
14 | C#CCOc1ccccc1CC(Oc1ncnc2sc(-c3ccco3)c(-c3ccc(OCCN4CCN(C)CC4)c(Cl)c3C)c12)C(=O)O [Example 216, (2R)-2-{[(5Sa)-5-{3-chloro-2-methyl-4-[2-(4-methylpiperazin-1-yl)ethoxy]phenyl}-6-(furan-2-yl)thieno[2,3-d]pyrimidin-4-yl]oxy}-3-[2-(prop-2-yn-1-yloxy)phenyl]propanoic acid] | 8.5e-09 | 0.217
15 | Cc1c(-c2c(-c3ccco3)sc3ncnc(OC(Cc4ccccc4OCC(=O)N(C)C)C(=O)O)c23)ccc(OCCN2CCN(C)CC2)c1Cl [Example 217, (2R)-2-{[(5Sa)-5-{3-chloro-2-methyl-4-[2-(4-methylpiperazin-1-yl)ethoxy]phenyl}-6-(furan-2-yl)thieno[2,3-d]pyrimidin-4-yl]oxy}-3-{2-[2-(dimethylamino)-2-oxoethoxy]phenyl}propanoic acid] | 5.3e-09 | 1.48
16 | CNC(=O)COc1ccccc1CC(Oc1ncnc2sc(-c3ccco3)c(-c3ccc(OCCN4CCN(C)CC4)c(Cl)c3C)c12)C(=O)O [Example 218, (2R)-2-{[(5Sa)-5-{3-chloro-2-methyl-4-[2-(4-methylpiperazin-1-yl)ethoxy]phenyl}-6-(furan-2-yl)thieno[2,3-d]pyrimidin-4-yl]oxy}-3-{2-[2-(methylamino)-2-oxoethoxy]phenyl}propanoic acid] | 6.5e-09 | 0.805
17 | Cc1c(-c2c(-c3ccco3)sc3ncnc(OC(Cc4ccccc4OCC(=O)Nc4ccccc4)C(=O)O)c23)ccc(OCCN2CCN(C)CC2)c1Cl [Example 219, (2R)-2-{[(5Sa)-5-{3-chloro-2-methyl-4-[2-(4-methylpiperazin-1-yl)ethoxy]phenyl}-6-(furan-2-yl)thieno[2,3-d]pyrimidin-4-yl]oxy}-3-{2-[2-oxo-2-(phenylamino)ethoxy]phenyl}propanoic acid] | 9.9e-09 | 0.191
18 | CCCCNC(=O)COc1ccccc1CC(Oc1ncnc2sc(-c3ccco3)c(-c3ccc(OCCN4CCN(C)CC4)c(Cl)c3C)c12)C(=O)O [Example 220, (2R)-3-{2-[2-(butylamino)-2-oxoethoxy]phenyl}-2-{[(5Sa)-5-{3-chloro-2-methyl-4-[2-(4-methylpiperazin-1-yl)ethoxy]phenyl}-6-(furan-2-yl)thieno[2,3-d]pyrimidin-4-yl]oxy}propanoic acid] | 9e-09 | 0.277
19 | Cc1c(-c2c(-c3ccco3)sc3ncnc(OC(Cc4ccccc4OCC(F)(F)F)C(=O)O)c23)ccc(OCCN2CCN(C)CC2)c1Cl [Example 221, (2R)-2-{[(5Sa)-5-{3-chloro-2-methyl-4-[2-(4-methylpiperazin-1-yl)ethoxy]phenyl}-6-(furan-2-yl)thieno[2,3-d]pyrimidin-4-yl]oxy}-3-[2-(2,2,2-trifluoroethoxy)phenyl]propanoic acid] | 6.3e-09 | 0.059
20 | Cc1c(-c2c(-c3ccco3)sc3ncnc(OC(Cc4ccccc4OCc4cc(Cl)ccn4)C(=O)O)c23)ccc(OCCN2CCN(C)CC2)c1Cl [Example 222, (2R)-2-{[(5Sa)-5-{3-chloro-2-methyl-4-[2-(4-methylpiperazin-1-yl)ethoxy]phenyl}-6-(furan-2-yl)thieno[2,3-d]pyrimidin-4-yl]oxy}-3-{2-[(4-chloropyridin-2-yl)methoxy]phenyl}propanoic acid] | 7.4e-09 | 0.314
